Reference: PubChem BioAssay AID248 (DTP/NCI, 2004)
Values joined by “and” are separate entries in the source; they are usually repeats but may differ in a detail not shown here. Equal entries are not always repeated. Toxic doses and inconclusive results are not listed. Rule as the data show it: active = T/C of 150% or more; inactive = T/C below 125%.

Test system: L1210 leukemia ip in BDF1 mice, survival T/C
Assay: NCI In Vivo Anticancer Drug Screen. Data for tumor model L1210 Leukemia (intraperitoneal) in B6D2F1 (BDF1) mice
Details: endpoint: mean survival time, higher = longer survival
Procedure, shortened: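 Tumor was transplanted into mice, which were then dosed with test compound or vehicle alone. Survival was recorded for each group, and the treated figure was expressed relative to the control figure.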

[1] = dose: 50.0 mg/kg/injection, schedule: Q01DX009 (ip), vehicle: saline
[2] = dose: 100.0 mg/kg/injection, schedule: Q01DX009 (ip), vehicle: saline
[3] = dose: 200.0 mg/kg/injection, schedule: Q01DX009 (ip), vehicle: saline
[4] = dose: 400.0 mg/kg/injection, schedule: Q01DX009 (ip), vehicle: saline
[5] = dose: 50.0 mg/kg/injection, schedule: Q01DX009 (ip), vehicle: saline with Tween-80
[6] = dose: 100.0 mg/kg/injection, schedule: Q01DX009 (ip), vehicle: saline with Tween-80
[7] = dose: 100.0 mg/kg/injection, schedule: Q04DX003 (ip), vehicle: saline with Tween-80
[8] = dose: 200.0 mg/kg/injection, schedule: Q04DX003 (ip), vehicle: saline with Tween-80
[9] = dose: 400.0 mg/kg/injection, schedule: Q04DX003 (ip), vehicle: saline with Tween-80
[10] = dose: 100.0 mg/kg/injection, schedule: Q01DX001 (ip), vehicle: saline with Tween-80
[11] = dose: 200.0 mg/kg/injection, schedule: Q01DX001 (ip), vehicle: saline with Tween-80
[12] = dose: 400.0 mg/kg/injection, schedule: Q01DX001 (ip), vehicle: saline with Tween-80
[13] = dose: 400.0 mg/kg/injection, schedule: Q01DX009 (ip), vehicle: saline with Tween-80
[14] = dose: 100.0 mg/kg/injection, schedule: Q01DX001 (ip), vehicle: saline

Measured: T/C

NC(Cc1cc(I)c(O)c(I)c1)C(=O)O (stereo not drawn)
inactive: dose: 12.5 mg/kg/injection, schedule: Q01DX009 (ip), vehicle: carboxymethylcellulose (CMC) 101 % of control | dose: 25.0 mg/kg/injection, schedule: Q01DX009 (ip), vehicle: carboxymethylcellulose (CMC) 99 % of control | dose: 25.0 mg/kg/injection, schedule: Q01DX009 (ip), vehicle: saline 92 % of control | dose: 25.0 mg/kg/injection, schedule: Q04DX003 (ip), vehicle: carboxymethylcellulose (CMC) 101 % of control | dose: 50.0 mg/kg/injection, schedule: Q01DX009 (ip), vehicle: carboxymethylcellulose (CMC) 90 % of control | [1] 112 % of control | dose: 50.0 mg/kg/injection, schedule: Q04DX003 (ip), vehicle: carboxymethylcellulose (CMC) 100 % of control | dose: 100.0 mg/kg/injection, schedule: Q01DX009 (ip), vehicle: carboxymethylcellulose (CMC) 99 % of control | [2] 108 % of control | dose: 100.0 mg/kg/injection, schedule: Q04DX003 (ip), vehicle: carboxymethylcellulose (CMC) 96 % of control | dose: 200.0 mg/kg/injection, schedule: Q01DX009 (ip), vehicle: carboxymethylcellulose (CMC) 91 % of control | [3] 108 % of control | dose: 200.0 mg/kg/injection, schedule: Q04DX003 (ip), vehicle: carboxymethylcellulose (CMC) 92 % of control | [4] 95 % of control | dose: 400.0 mg/kg/injection, schedule: Q04DX003 (ip), vehicle: carboxymethylcellulose (CMC) 100 % of control

CC1CN=C(c2ccc(O)c(O)c2)S1 (stereo not drawn)
inactive: dose: 100.0 mg/kg/injection, schedule: Q04DX002 (ip), vehicle: saline 107 % of control | dose: 200.0 mg/kg/injection, schedule: Q04DX002 (ip), vehicle: saline 107 % of control | dose: 400.0 mg/kg/injection, schedule: Q04DX002 (ip), vehicle: saline 100 % of control

Cc1cc(C)n(/N=C/c2ccccn2)c(=O)c1C#N
inactive: dose: 75.0 mg/kg/injection, schedule: Q04DX003 (ip), vehicle: Klucel (hydroxypropylcellulose) (HPC) 94 % of control | dose: 100.0 mg/kg/injection, schedule: Q01DX001 (ip), vehicle: Klucel (hydroxypropylcellulose) (HPC) 97 % of control | dose: 150.0 mg/kg/injection, schedule: Q04DX003 (ip), vehicle: Klucel (hydroxypropylcellulose) (HPC) 97 % of control | dose: 200.0 mg/kg/injection, schedule: Q01DX001 (ip), vehicle: Klucel (hydroxypropylcellulose) (HPC) 97 % of control | dose: 300.0 mg/kg/injection, schedule: Q04DX003 (ip), vehicle: Klucel (hydroxypropylcellulose) (HPC) 100 % of control | dose: 400.0 mg/kg/injection, schedule: Q01DX001 (ip), vehicle: Klucel (hydroxypropylcellulose) (HPC) 102 % of control

OC(c1ccccc1)(c1ccccc1)C1C(Cc2ccccc2)C1Cc1ccccc1 (stereo not drawn)
inactive: dose: 100.0 mg/kg/injection, schedule: Q01DX001 (ip), vehicle: steriod suspending solution 110 % of control | dose: 200.0 mg/kg/injection, schedule: Q01DX001 (ip), vehicle: steriod suspending solution 112 % of control | dose: 400.0 mg/kg/injection, schedule: Q01DX001 (ip), vehicle: steriod suspending solution 104 % of control

ClC1=C(Cl)C2(Cl)CCC1(Cl)C2Cl (stereo not drawn)
inactive: [1] 103 % of control | [2] 98 % of control | dose: 100.0 mg/kg/injection, schedule: Q04DX003 (ip), vehicle: saline 104 % of control | [3] 95 % of control | dose: 200.0 mg/kg/injection, schedule: Q04DX003 (ip), vehicle: saline 103 % of control | dose: 400.0 mg/kg/injection, schedule: Q04DX003 (ip), vehicle: saline 97 % of control

O=C(O)c1c(Cl)cccc1Cl
inactive: dose: 25.0 mg/kg/injection, schedule: Q01DX009 (ip), vehicle: saline with Tween-80 92 % of control | [5] 93 % of control | [6] 93 % of control and 87 % of control | [7] 98 % of control | [8] 95 % of control | [9] 95 % of control

CC1(C2CCN(Cc3ccccc3)CC2)OCCO1
inactive: dose: 37.5 mg/kg/injection, schedule: Q04DX003 (ip), vehicle: saline 100 % of control | dose: 75.0 mg/kg/injection, schedule: Q04DX003 (ip), vehicle: saline 100 % of control | dose: 150.0 mg/kg/injection, schedule: Q04DX003 (ip), vehicle: saline 101 % of control

O=C(CBr)OCS(=O)(=O)O
inactive: dose: 75.0 mg/kg/injection, schedule: Q01DX001 (ip), vehicle: saline 102 % of control | dose: 150.0 mg/kg/injection, schedule: Q01DX001 (ip), vehicle: saline 96 % of control | dose: 300.0 mg/kg/injection, schedule: Q01DX001 (ip), vehicle: saline 100 % of control

O=C(O)c1ccc(O)c([N+](=O)[O-])c1
inactive: [2] 105 % of control | dose: 100.0 mg/kg/injection, schedule: Q04DX003 (ip), vehicle: Klucel (hydroxypropylcellulose) (HPC) 101 % of control | [3] 96 % of control | dose: 200.0 mg/kg/injection, schedule: Q04DX003 (ip), vehicle: Klucel (hydroxypropylcellulose) (HPC) 100 % of control | [4] 87 % of control | dose: 400.0 mg/kg/injection, schedule: Q04DX003 (ip), vehicle: Klucel (hydroxypropylcellulose) (HPC) 102 % of control

O=C1CCC([N+](=O)[O-])C(c2ccc3ccccc3c2)N1 (stereo not drawn)
inactive: [10] 95 % of control | [11] 95 % of control | [12] 95 % of control

O=C1CCCCc2c1ccc(O)c2[N+](=O)[O-]
inactive: [5] 88 % of control

CC1(C)SC(C(NC(=O)Cc2ccccc2)C(=O)O)NC1C(=O)O (stereo not drawn)
inactive: [6] 92 % of control | [13] 97 % of control

CN1C2CCC(O)C1CC2 (stereo not drawn)
inactive: [14] 102 % of control | dose: 200.0 mg/kg/injection, schedule: Q01DX001 (ip), vehicle: saline 102 % of control

O=S(=O)(c1ccc2ccccc2c1)C1CC1c1ccccc1 (stereo not drawn)
inactive: dose: 100.0 mg/kg/injection, schedule: Q01DX001 (ip), vehicle: acetone 92 % of control | dose: 200.0 mg/kg/injection, schedule: Q01DX001 (ip), vehicle: acetone 98 % of control | dose: 400.0 mg/kg/injection, schedule: Q01DX001 (ip), vehicle: acetone 93 % of control

C[N+](C)(CCOc1ccccc1)Cc1cccs1
inactive: dose: 50.0 mg/kg/injection, schedule: Q01DX001 (ip), vehicle: saline 109 % of control | [14] 97 % of control

Cc1ccc(C)c(NC(=O)OCc2ccco2)c1
inactive: [10] 97 % of control | [6] 107 % of control and 89 % of control | dose: 100.0 mg/kg/injection, schedule: Q04DX002 (ip), vehicle: saline with Tween-80 93 % of control and 100 % of control | [7] 105 % of control | [11] 95 % of control | dose: 200.0 mg/kg/injection, schedule: Q01DX009 (ip), vehicle: saline with Tween-80 100 % of control and 89 % of control | dose: 200.0 mg/kg/injection, schedule: Q04DX002 (ip), vehicle: saline with Tween-80 96 % of control and 98 % of control | [8] 93 % of control | [12] 95 % of control | [13] 100 % of control and 89 % of control | dose: 400.0 mg/kg/injection, schedule: Q04DX002 (ip), vehicle: saline with Tween-80 93 % of control and 102 % of control | [9] 93 % of control

O=C(O)c1cc(I)c(I)c(I)c1
inactive: [7] 97 % of control | [8] 101 % of control
